Results: patent US9968089B2, “Microbicidal composition” (Dow Global Technologies LLC, priority 2013, dated 2018)
Read-outs that look alike come from different tables or passages of the source.

Key:
Assay in all cases: MIC and synergy index test in 96 well microtiter plates
Assay type in all cases: cell-based
[1] = tested on: Pseudomonas aeruginosa ATCC #15442; conditions: 1/10 TSB
Procedure: Surfactants and biocides were evaluated for synergy by determining the synergy index (S.I.) of the combination. Synergy index was calculated based on minimum inhibitory concentrations (MIC) of two antimicrobial compounds (A and B) alone and in combinations. The tests organisms were Gram negative bacteria (Pseudomonas aeruginosa ATCC #15442), Gram positive bacteria (Staphylococcus aureus ATCC #6538), yeast (Candida albicans ATCC#10203) and mold (Aspergillus niger ATCC#16404). […] The test was carried out in 96 well microtiter plates. • Surf. A R^1O(CH2CH(CH3)O)5(CH2CH2O)9H, where R^1 is 2-ethylhexyl • Surf. D R^2O(CH2CH(CH3)O)3(CH2CH2O)5H • Surf. E R^2O(CH2CH(CH3)O)3(CH2CH2O)7H • In Surf. D and Surf. E, R^2 is a mixture of C8-C14 linear alkyl groups (70% C8-C10 linear alkyl and 30% C12-C14 linear alkyl)
(§1) The pH of the Triptic soy broth was 7.3 and the Potato dextrose broth was 5.1.
(§2) SI is calculated as follows: Ca/CA+Cb/CB=Synergy Index(“SI”)
(§3) Wherein: • CA=concentration of compound A in ppm, acting alone, which produced an end point (MIC of Compound A). • Ca=concentration of compound A in ppm, in the mixture, which produced an end point. • CB=concentration of compound B in ppm, acting alone, which produced an end point (MIC of Compound B). • Cb=concentration of compound B in ppm, in the mixture, which produced an end point.
(§4) When the sum of Ca/CA and Cb/CB is greater than one, antagonism is indicated.

[2] = tested on: Staphylococcus aureus ATCC #6538; conditions: ATCC6538, 24 h
Procedure: (§5) Surfactants and biocides were evaluated for synergy by determining the synergy index (S.I.) of the combination. Synergy index was calculated based on minimum inhibitory concentrations (MIC) of two antimicrobial compounds (A and B) alone and in combinations. The tests organisms were Gram negative bacteria (Pseudomonas aeruginosa ATCC #15442), Gram positive bacteria (Staphylococcus aureus ATCC #6538), yeast (Candida albicans ATCC#10203) and mold (Aspergillus niger ATCC#16404). Contact time for the bacteria was 24 and 48 hours, yeast was 48 and 72 hrs, and 3 and 7 days for mold. The test was carried out in 96 well microtiter plates. • Surf. A R^1O(CH2CH(CH3)O)5(CH2CH2O)9H, where R^1 is 2-ethylhexyl • Surf. D R^2O(CH2CH(CH3)O)3(CH2CH2O)5H • Surf. E R^2O(CH2CH(CH3)O)3(CH2CH2O)7H • In Surf. D and Surf. E, R^2 is a mixture of C8-C14 linear alkyl groups (70% C8-C10 linear alkyl and 30% C12-C14 linear alkyl)
as §1, §2, §3, §4

[3] = tested on: Aspergillus niger ATCC#16404; conditions: PDB
Procedure: as §5, §1, §2, §3, §4

[4] = tested on: Candida albicans ATCC#10203; conditions: PDB
Procedure: as §5, §1, §2, §3, §4

**Q.** How did the MIC ([1]; ATCC15442, 24 h, A: Surf. D, B: TrisNitro, Ps. aeruginosa ATCC#15442, 24 hrs, inoculum 1.16E+08, read-out: CB (MIC of compound B acting alone)) turn out when O=[N+]([O-])C(CO)(CO)CO [Tris Nitro, tris(hydroxymethyl)nitromethane] was run?
**A.** 800 µg/mL

**Q.** And the MIC ([1]; ATCC15442, 24 h, A: Surf. E, B: TrisNitro, Ps. aeruginosa ATCC#15442, 24 hrs, inoculum 5.727E+07 CFU/ml, read-out: CB (MIC of compound B acting alone))?
**A.** 1000 µg/mL

**Q.** And the MIC ([2]; A: Surf. E, B: TrisNitro, S. aureus ATCC# 6538, 24 hrs, 1/10 TSB, inoculum 1.808E+06 CFU/ml, read-out: CB (MIC of compound B acting alone))?
**A.** 500 µg/mL

**Q.** Cl/C=C\C[N+]12CN3CN(CN(C3)C1)C2.[Cl-] [CTAC, cis-1-(3-chloroallyl)-3,5,7-triaza-1-azoniaadamantane chloride] was tested. Which MIC ([1]; ATCC15442, 72 h, A: Surf. A, B: CTAC, P. aeruginosa ATCC#15442, 3rd Day, inoculum 1.156E+06, read-out: CB (MIC of compound B acting alone)) did it give?
**A.** 600 µg/mL

**Q.** And the MIC ([3]; ATCC16404, A: Surf. D, B: CTAC, A. niger ATCC#16404, 3rd day, inoculum 1.156E+06, read-out: CB (MIC of compound B acting alone))?
**A.** 1000 µg/mL

**Q.** And the MIC ([4]; ATCC10203, 48 h, A: Surf. D, B: CTAC, C. albicans ATCC#10203, 48 hrs, inoculum 5.726E+05 CFU/ml, read-out: CB (MIC of compound B acting alone))?
**A.** 1000 µg/mL

**Q.** What about the MIC ([4]; ATCC10203, 48 h, A: Surf. E, B: CTAC, C. albicans ATCC 10203, 48 hrs, inoculum 1.808E+05, read-out: CB (MIC of compound B acting alone)) of the same compound?
**A.** 3000 µg/mL

**Q.** And the MIC ([2]; A: Surf. D, B: CTAC, S. aureus ATCC# 6538, 24 hrs, 1/10 TSB, inoculum 1.808E+05, read-out: CB (MIC of compound B acting alone))?
**A.** 300 µg/mL

**Q.** And the MIC ([2]; A: Surf. E, B: CTAC, S. aureus ATCC# 6538, 24 hrs, 1/10 TSB, inoculum 1.8E+06, read-out: CB (MIC of compound B acting alone))?
**A.** 200 µg/mL

**Q.** CC1(C)COCN1 [DMO, 4,4-dimethyloxazolidine] was tested. Which MIC ([1]; ATCC15442, 24 h, A: Surf. A, B: DMO, P. aeruginosa ATCC#15442, 24 hrs, inoculum 8.134+07 CFU/ml, read-out: CB (MIC of compound B acting alone)) did it give?
**A.** 80 µg/mL

**Q.** And the MIC ([3]; ATCC16404, A: Surf. A, B: DMO, A. niger ATCC#16404, 3rd Day, inoculum 1.156E+06 CFU/ml, read-out: CB (MIC of compound B acting alone))?
**A.** 60 µg/mL

**Q.** What about the MIC ([3]; ATCC16404, A: Surf. D, B: DMO, A. niger ATCC# 16404, 3rd day, inoculum 1.156E+06, read-out: CB (MIC of compound B acting alone)) of the same compound?
**A.** 400 µg/mL

**Q.** What about the MIC ([3]; ATCC16404, A: Surf. E, B: DMO, A. niger ATCC#16404, 3rd Day, inoculum 1.56E+06 CFU/ml, read-out: CB (MIC of compound B acting alone)) of the same compound?
**A.** 800 µg/mL

**Q.** What about the MIC ([4]; ATCC10203, 48 h, A: Surf. E, B: DMO, C. albicans ATCC#10203, 48 hrs, inoculum 1808E+06, read-out: CB (MIC of compound B acting alone)) of the same compound?
**A.** 1000 µg/mL

**Q.** And the MIC ([4]; ATCC 10203 / ATCC 10231, 48 h, A: Surf. D, B: DMO, C. albicans ATCC#10231, 48 hrs, inoculum 5.726E+05 CFU/ml, read-out: CB (MIC of compound B acting alone))?
**A.** 1000 µg/mL

**Q.** What about the MIC ([4]; ATCC 10203 / ATCC 10231, A: Surf. A, B: DMO, C. albicans ATCC#10231, 3rd Day, inoculum 1.156E+06 CFU/ml, read-out: CB (MIC of compound B acting alone)) of the same compound?
**A.** 1000 µg/mL

**Q.** What about the MIC ([2]; A: Surf. D, B: 1135, S. aureus ATCC#6538, 24 hrs, 1/10 TSB, inoculum 1.16E+08, read-out: CB (MIC of compound B acting alone)) of the same compound?
**A.** 80 µg/mL

**Q.** What about the MIC ([2]; A: Surf. E, B: DMO, ATCC# 6538, 24 hrs, 1/10 TSB, inoculum 1.80E+06 CFU/ml, read-out: CB (MIC of compound B acting alone)) of the same compound?
**A.** 80 µg/mL

**Q.** And the MIC ([2]; read-out: CB (MIC of compound B acting alone))?
**A.** 50 µg/mL
